The text below walks through data of article PMC9909988, “Procoxacin bidirectionally inhibits osteoblastic and osteoclastic activity in bone and suppresses bone metastasis of prostate cancer” (Journal of Experimental & Clinical Cancer Research : CR, 2023).

What is called Kd is the equilibrium constant for the complex coming apart. A high value points to a looser complex.

The test concerns the target T1, 14–3-3ζ (Homo sapiens, UniProt P63104).
T1 construct: gene YWHAZ
The test is described as follows: SPR (Biacore T200, […]-3ζ ab87361 captured on NTA chip); supported by Pro-conjugated magnetic bead pull-down from C4-2B lysate. The class given is binding. A general note: Surface plasmon resonance follows binding to a sensor surface in real time, without labels.

T1 sequence (P63104 whole entry): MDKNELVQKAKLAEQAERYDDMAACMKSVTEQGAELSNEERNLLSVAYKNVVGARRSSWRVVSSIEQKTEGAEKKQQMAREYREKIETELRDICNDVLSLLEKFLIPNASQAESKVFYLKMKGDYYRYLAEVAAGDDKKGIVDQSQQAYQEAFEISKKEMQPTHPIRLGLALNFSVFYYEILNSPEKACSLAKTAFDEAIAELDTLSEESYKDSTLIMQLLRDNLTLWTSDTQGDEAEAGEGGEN

`CC[C@@H](C(=O)[C@@H](C)[C@@H](O)[C@H](C)[C@@H]1O[C@@H]([C@@H](CC)C(=O)O)CC[C@@H]1C)[C@H]1O[C@]2(C=C[C@@H](O)[C@]3(CC[C@@](C)([C@H]4CC[C@](O)(CC)[C@H](C)O4)O3)O2)[C@H](C)C[C@@H]1C` [Pro, Procoxacin] came in with a Kd of 1.93 µM. In other words, the single-digit micromolar range.
